Test results published in PubChem BioAssay AID2060889 (Molecular Pharmacology Branch, DTP, NCI, 2025).

System: LG0567-F671-PDC complex spheroids viability
Assay: Anticancer human tumor LG0567-F671-PDC patient-derived lung adenocarcinoma cell line growth inhibition [RAS]
Conditions: for viability, T/C: stronger effect = lower value; active means viability on the fitted dose curve at most 10% of control; inactive means the rest
Outline: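 Tumour cells grown as complex spheroids with HUVEC endothelial cells and mesenchymal stem cells, treated with RAS pathway inhibitor combinations. Each agent spans half-log steps from near clinical Cmax, or 10 microM where Cmax is unknown.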

[1] = curve of first compound, second compound 0.000949 µM
[2] = curve of first compound, second compound 0.003 µM
[3] = curve of first compound, second compound 0.00949 µM
[4] = curve of first compound, second compound 0.03 µM
[5] = curve of first compound, second compound 0.0949 µM
[6] = curve of first compound, second compound 0.3 µM
[7] = second compound 0.000949 µM, first compound 0.0316 µM
[8] = second compound 0.000949 µM, first compound 0.1 µM
[9] = second compound 0.000949 µM, first compound 0.316 µM
[10] = second compound 0.000949 µM, first compound 1 µM
[11] = second compound 0.003 µM, first compound 0.0316 µM
[12] = second compound 0.003 µM, first compound 0.1 µM
[13] = second compound 0.003 µM, first compound 0.316 µM
[14] = second compound 0.003 µM, first compound 1 µM
[15] = second compound 0.00949 µM, first compound 0.0316 µM
[16] = second compound 0.00949 µM, first compound 0.1 µM
[17] = second compound 0.00949 µM, first compound 0.316 µM
[18] = second compound 0.00949 µM, first compound 1 µM
[19] = second compound 0.03 µM, first compound 0.0316 µM
[20] = second compound 0.03 µM, first compound 0.1 µM
[21] = second compound 0.03 µM, first compound 0.316 µM
[22] = second compound 0.03 µM, first compound 1 µM
[23] = second compound 0.0949 µM, first compound 0.0316 µM
[24] = second compound 0.0949 µM, first compound 0.1 µM
[25] = second compound 0.0949 µM, first compound 0.316 µM
[26] = second compound 0.0949 µM, first compound 1 µM
[27] = second compound 0.3 µM, first compound 0.0316 µM
[28] = second compound 0.3 µM, first compound 0.1 µM
[29] = second compound 0.3 µM, first compound 0.316 µM
[30] = second compound 0.3 µM, first compound 1 µM
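Further: spheroids exposed to compound for seven days before readout.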
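Wherever IC50 is given: luminescence signal used as a proxy for viable cells.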

C=CC(=O)Nc1cc(Nc2nccc(-c3cn(C)c4ccccc34)n2)c(OC)cc1N(C)CCN(C)C + CCn1c(-c2cc(N3CCN(C)CC3)cnc2C(C)OC)c2c3cc(ccc31)-c1csc(n1)CC(NC(=O)C1CC1C)C(=O)N1CCCC(N1)C(=O)OCC(C)(C)C2
< 3.16 nM: IC50 [1] | IC50 [2] | IC50 [3] | IC50 [4] | IC50 [5] | IC50 [6]
active: viability, T/C [9] 5.93% | viability, T/C [10] 2.95% | viability, T/C (second compound 0.003 µM, first compound 0.01 µM) 10.2% | viability, T/C [11] 8.59% | viability, T/C [12] 4.71% | viability, T/C [13] 3.14% | viability, T/C [14] 1.73% | viability, T/C (second compound 0.00949 µM, first compound 0.00316 µM) 6.67% | viability, T/C (second compound 0.00949 µM, first compound 0.01 µM) 6.47% | viability, T/C [15] 4.89% | viability, T/C [16] 3.67% | viability, T/C [17] 1.84% | viability, T/C [18] 1.07% | viability, T/C (second compound 0.03 µM, first compound 0.00316 µM) 3.85% | viability, T/C (second compound 0.03 µM, first compound 0.01 µM) 3.87% | viability, T/C [19] 11.8% | viability, T/C [20] 2.59% | viability, T/C [21] 1.49% | viability, T/C [22] 0.76% | viability, T/C (second compound 0.0949 µM, first compound 0.00316 µM) 3.44% | viability, T/C (second compound 0.0949 µM, first compound 0.01 µM) 2.65% | viability, T/C [23] 2.81% | viability, T/C [24] 2.03% | viability, T/C [25] 1.32% | viability, T/C [26] 0.84% | viability, T/C (second compound 0.3 µM, first compound 0.00316 µM) 2.71% | viability, T/C (second compound 0.3 µM, first compound 0.01 µM) 2.18% | viability, T/C [27] 2.37% | viability, T/C [28] 1.85% | viability, T/C [29] 1.11% | viability, T/C [30] 0.63%
inactive: viability, T/C (second compound 0.000949 µM, first compound 0.00316 µM) 24.1% | viability, T/C (second compound 0.000949 µM, first compound 0.01 µM) 19.9% | viability, T/C [7] 17.7% | viability, T/C [8] 11.7% | viability, T/C (second compound 0.003 µM, first compound 0.00316 µM) 11.5%

O=C(c1ccc(F)c(F)c1Nc1ccc(I)cc1F)N1CC(O)([C@@H]2CCCCN2)C1 + C#Cc1c(F)ccc2cc(O)cc(-c3ncc4c(N5CC6CCC(C5)N6)nc(OCC56CCCN5CC(F)C6)nc4c3F)c12
inactive: viability, T/C (second compound 0.0316 µM, first compound 0.00316 µM) 80.2% | viability, T/C (second compound 0.0316 µM, first compound 0.01 µM) 53.4% | viability, T/C (second compound 0.0316 µM, first compound 0.0316 µM) 37% | viability, T/C (second compound 0.0316 µM, first compound 0.1 µM) 23% | viability, T/C (second compound 0.0316 µM, first compound 0.316 µM) 10.1% | viability, T/C (second compound 0.1 µM, first compound 0.00316 µM) 64.2% | viability, T/C (second compound 0.1 µM, first compound 0.01 µM) 45.9% | viability, T/C (second compound 0.1 µM, first compound 0.0316 µM) 35.4% | viability, T/C (second compound 0.1 µM, first compound 0.1 µM) 19.2% | viability, T/C (second compound 0.1 µM, first compound 0.316 µM) 10.7% | viability, T/C (second compound 0.316 µM, first compound 0.00316 µM) 52.8% | viability, T/C (second compound 0.316 µM, first compound 0.01 µM) 46.8% | viability, T/C (second compound 0.316 µM, first compound 0.0316 µM) 30.7% | viability, T/C (second compound 0.316 µM, first compound 0.1 µM) 17.1% | viability, T/C (second compound 1 µM, first compound 0.00316 µM) 34.5% | viability, T/C (second compound 1 µM, first compound 0.01 µM) 28% | viability, T/C (second compound 1 µM, first compound 0.0316 µM) 21.3% | viability, T/C (second compound 1 µM, first compound 0.1 µM) 12.1% | viability, T/C (second compound 3.16 µM, first compound 0.00316 µM) 17.3% | viability, T/C (second compound 3.16 µM, first compound 0.01 µM) 14.1% | viability, T/C (second compound 3.16 µM, first compound 0.0316 µM) 16.4% | viability, T/C (second compound 10 µM, first compound 0.00316 µM) 10.5%
13.6 nM: IC50 (curve of first compound, second compound 0.0316 µM)
5.19 nM: IC50 (curve of first compound, second compound 0.316 µM)
8.46 nM: IC50 (curve of first compound, second compound 0.1 µM)
active: viability, T/C (second compound 0.0316 µM, first compound 1 µM) 3.93% | viability, T/C (second compound 0.1 µM, first compound 1 µM) 3.38% | viability, T/C (second compound 0.316 µM, first compound 0.316 µM) 9.98% | viability, T/C (second compound 0.316 µM, first compound 1 µM) 3.87% | viability, T/C (second compound 1 µM, first compound 0.316 µM) 6.87% | viability, T/C (second compound 1 µM, first compound 1 µM) 3.06% | viability, T/C (second compound 3.16 µM, first compound 0.1 µM) 7.89% | viability, T/C (second compound 3.16 µM, first compound 0.316 µM) 3.15% | viability, T/C (second compound 3.16 µM, first compound 1 µM) 2.12% | viability, T/C (second compound 10 µM, first compound 0.01 µM) 7.59% | viability, T/C (second compound 10 µM, first compound 0.0316 µM) 5.41% | viability, T/C (second compound 10 µM, first compound 0.1 µM) 2.84% | viability, T/C (second compound 10 µM, first compound 0.316 µM) 1.91% | viability, T/C (second compound 10 µM, first compound 1 µM) 1.49%
< 3.16 nM: IC50 (curve of first compound, second compound 1 µM) | IC50 (curve of first compound, second compound 3.16 µM) | IC50 (curve of first compound, second compound 10 µM)

CC(=O)OC12COC1CC(O)C1(C)C(=O)C(O)C3=C(C)C(OC(=O)C(O)C(NC(=O)OC(C)(C)C)c4ccccc4)CC(O)(C(OC(=O)c4ccccc4)C21)C3(C)C (configuration not stated) + CCn1c(-c2cc(N3CCN(C)CC3)cnc2C(C)OC)c2c3cc(ccc31)-c1csc(n1)CC(NC(=O)C1CC1C)C(=O)N1CCCC(N1)C(=O)OCC(C)(C)C2
< 31.6 nM: IC50 [1] | IC50 [2] | IC50 [3] | IC50 [4] | IC50 [5] | IC50 [6]
inactive: viability, T/C [7] 17.3% | viability, T/C [8] 14.6% | viability, T/C [9] 16.6% | viability, T/C [10] 20.3% | viability, T/C (second compound 0.000949 µM, first compound 3.16 µM) 21.7% | viability, T/C (second compound 0.000949 µM, first compound 10 µM) 15.3%
active: viability, T/C [11] 8.54% | viability, T/C [12] 7.86% | viability, T/C [13] 8.72% | viability, T/C [14] 8.18% | viability, T/C (second compound 0.003 µM, first compound 3.16 µM) 8.46% | viability, T/C (second compound 0.003 µM, first compound 10 µM) 5.71% | viability, T/C [15] 5.57% | viability, T/C [16] 4.28% | viability, T/C [17] 4.95% | viability, T/C [18] 3.96% | viability, T/C (second compound 0.00949 µM, first compound 3.16 µM) 4.72% | viability, T/C (second compound 0.00949 µM, first compound 10 µM) 3.03% | viability, T/C [19] 3.18% | viability, T/C [20] 3.69% | viability, T/C [21] 3.02% | viability, T/C [22] 3.03% | viability, T/C (second compound 0.03 µM, first compound 3.16 µM) 2.9% | viability, T/C (second compound 0.03 µM, first compound 10 µM) 1.92% | viability, T/C [23] 2.46% | viability, T/C [24] 2.37% | viability, T/C [25] 2.22% | viability, T/C [26] 2.27% | viability, T/C (second compound 0.0949 µM, first compound 3.16 µM) 2.34% | viability, T/C (second compound 0.0949 µM, first compound 10 µM) 1.6% | viability, T/C [27] 2.92% | viability, T/C [28] 1.92% | viability, T/C [29] 1.85% | viability, T/C [30] 1.89% | viability, T/C (second compound 0.3 µM, first compound 3.16 µM) 2.06% | viability, T/C (second compound 0.3 µM, first compound 10 µM) 1.66%

C=CC(=O)Nc1cc(Nc2nccc(-c3cn(C)c4ccccc34)n2)c(OC)cc1N(C)CCN(C)C
225 nM [middle of 4 runs]: IC50 (curve of compound)
inactive: viability, T/C (compound 0.01 µM) 92.5% [middle of 4 runs] | viability, T/C (compound 0.0316 µM) 86% [middle of 4 runs] | viability, T/C (compound 0.1 µM) 68.7% [middle of 4 runs] | viability, T/C (compound 0.316 µM) 42.7% [middle of 4 runs] | viability, T/C (compound 1 µM) 23.2% [middle of 4 runs]
